In the supplement of paper PMC10307832:

Tests used:
Assay in all cases: relative viability (nuclei count vs DMSO), 5 days (fraction); higher = more cells survive
[1] = compound: C1COCCN1C2=NC(=NC3=C2OC4=C3C=CC=N4)C5=CC(=CC=C5)NC(=O)C6=CN=C(C=C6)N + CC(=O)Nc1cccc(-n2c(=O)n(C3CC3)c(=O)c3c(Nc4ccc(I)cc4F)n(C)c(=O)c(C)c32)c1 [Trametinib] (partner 0.02 µM)
Summary of the method: (§1)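 Lung cancer cell lines, seeded in 1536-well plates, were treated the following day by pin tool with a single drug or with five library-drug doses (not always all listed) in √10 steps on top of a fixed anchor-drug dose. Cells were fixed and nuclei stained in one step after 5 days, and nuclei were counted. Relative viability is the nuclei count for treated wells divided by that for vehicle wells, reported as medians of duplicate plates.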

[2] = compound: C1COCCN1C2=NC(=NC3=C2OC4=C3C=CC=N4)C5=CC(=CC=C5)NC(=O)C6=CN=C(C=C6)N + COc1cccc2cc(-c3nc([C@H]4CC[C@H](C(=O)O)CC4)n4ncnc(N)c34)[nH]c12 [OSI-027] (partner 0.5 µM)
Summary of the method: as §1

Entinostat + Linsitinib = compound: Nc1ccccc1NC(=O)c1ccc(CNC(=O)OCc2cccnc2)cc1 [Entinostat] + C[C@]1(O)C[C@@H](c2nc(-c3ccc4ccc(-c5ccccc5)nc4c3)c3c(N)nccn32)C1 [Linsitinib] (partner 1 µM)
Summary of the method: as §1

Entinostat + Tozasertib = compound: Nc1ccccc1NC(=O)c1ccc(CNC(=O)OCc2cccnc2)cc1 [Entinostat] + Cc1cc(Nc2cc(N3CCN(C)CC3)nc(Sc3ccc(NC(=O)C4CC4)cc3)n2)n[nH]1 [Tozasertib] (partner 0.1 µM)
Summary of the method: as §1

| Cell Line | relative viability ([1]; first compound 0.02 µM) | relative viability ([1]; first compound 0.06325 µM) | relative viability ([1]; first compound 0.2 µM) | relative viability ([1]; first compound 0.6325 µM) | relative viability ([1]; first compound 2 µM) | relative viability ([2]; first compound 0.02 µM) | relative viability ([2]; first compound 0.06325 µM) | relative viability ([2]; first compound 0.2 µM) | relative viability ([2]; first compound 0.6325 µM) | relative viability ([2]; first compound 2 µM) | relative viability (Entinostat + Linsitinib; first compound 0.02 µM) | relative viability (Entinostat + Linsitinib; first compound 0.06325 µM) | relative viability (Entinostat + Linsitinib; first compound 0.2 µM) | relative viability (Entinostat + Linsitinib; first compound 0.6325 µM) | relative viability (Entinostat + Linsitinib; first compound 2 µM) | relative viability (Entinostat + Tozasertib; first compound 0.02 µM) | relative viability (Entinostat + Tozasertib; first compound 0.06325 µM) | relative viability (Entinostat + Tozasertib; first compound 0.2 µM) | relative viability (Entinostat + Tozasertib; first compound 0.6325 µM) | relative viability (Entinostat + Tozasertib; first compound 2 µM) |
| --- | --- | --- | --- | --- | --- | --- | --- | --- | --- | --- | --- | --- | --- | --- | --- | --- | --- | --- | --- | --- |
| NCI-H647 | 0.414 | 0.483 | 0.419 | 0.378 | 0.234 | 0.572 | 0.722 | 0.748 | 0.442 | 0.306 | 1.23 | 1.14 | 0.932 | 0.327 | 0.121 | 0.32 | 0.214 | 0.228 | 0.0707 | 0.0371 |
| NCI-H650 | 0.923 | 1.05 | 0.951 | 0.888 | 0.796 | 0.545 | 0.511 | 0.488 | 0.474 | 0.478 | 1.03 | 1.16 | 0.902 | 0.552 | 0.243 | 0.739 | 0.652 | 0.555 | 0.482 | 0.212 |
| NCI-H661 | 0.607 | 0.631 | 0.534 | 0.599 | 0.436 | 0.709 | 0.7 | 0.659 | 0.619 | 0.539 | 0.481 | 0.769 | 0.678 | 0.725 | 0.624 | 0.339 | 0.332 | 0.282 | 0.334 | 0.396 |
| NCI-H727 | 0.378 | 0.332 | 0.374 | 0.416 | 0.364 | 0.542 | 0.517 | 0.624 | 0.588 | 0.541 | 0.306 | 0.344 | 0.35 | 0.255 | 0.0975 | 0.605 | 0.647 | 0.497 | 0.392 | 0.403 |
| NCI-H838 | 0.52 | 0.529 | 0.463 | 0.41 | 0.298 | 0.348 | 0.381 | 0.348 | 0.31 | 0.278 | 1.11 | 1.1 | 1.11 | 0.594 | 0.279 | 0.287 | 0.261 | 0.239 | 0.146 | 0.127 |
| NCI-H1355 | 0.452 | 0.427 | 0.395 | 0.367 | 0.372 | 0.397 | 0.401 | 0.336 | 0.359 | 0.363 | 0.811 | 0.769 | 0.653 | 0.551 | 0.468 | 0.525 | 0.484 | 0.412 | 0.303 | 0.275 |
| NCI-H1395 | 0.962 | 0.956 | 0.898 | 1.02 | 0.875 | 0.562 | 0.49 | 0.523 | 0.604 | 0.519 | 1.1 | 1.13 | 1.01 | 0.885 | 0.594 | 0.668 | 0.721 | 0.696 | 0.496 | 0.47 |
| NCI-H1437 | 0.492 | 0.551 | 0.511 | 0.419 | 0.224 | 0.816 | 0.844 | 0.791 | 0.6 | 0.535 | 0.92 | 0.565 | 0.298 | 0.151 | 0.113 | 0.31 | 0.253 | 0.181 | 0.132 | 0.108 |
